Drawing on patent publication US12187728B2 (Raze Therapeutics, Inc., priority 2015, dated 2025), this text covers IC50 for 19 molecules.

One may read the IC50 as the concentration that gives 50% inhibition. Read a high IC50 as a need for much substance.

The target of this test is T1, Human MTHFD2 (Homo sapiens, UniProt P13995).
T1 construct: residues 36-350 in Uniport ID P13995; His6 (N); made in house; host or cells: E. coli
T1 sequence (P13995 36-350): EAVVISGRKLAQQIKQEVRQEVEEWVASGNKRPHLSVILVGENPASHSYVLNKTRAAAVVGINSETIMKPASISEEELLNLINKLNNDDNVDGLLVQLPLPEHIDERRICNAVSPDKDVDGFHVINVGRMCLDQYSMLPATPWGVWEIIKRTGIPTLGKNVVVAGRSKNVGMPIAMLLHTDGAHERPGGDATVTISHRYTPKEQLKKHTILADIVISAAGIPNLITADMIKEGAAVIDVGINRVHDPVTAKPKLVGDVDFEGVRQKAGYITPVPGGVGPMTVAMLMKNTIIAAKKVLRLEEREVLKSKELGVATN
The test is described as follows: MTHFD2 Activity Assay (dehydrogenase activity, diaphorase/resazurin coupled fluorescence). As to conditions: inhibitory activity (IC50 and/or binding constant); 0.2 nM MTHFD2, 11 concentrations. The format is biochemical. The text has this: Human MTHFD2 (residues 36-350 in Uniport ID P13995) was expressed as an N-terminal His6 tagged protein and purified in E. coli using nickel capture followed by size-exclusion chromatography.
MTHFD2 dehydrogenase activity oxidizes methylene tetrahyrofolate to methenyl-tetrahydrofolate with the concomitant reduction of NAD to NADH. MTHFD2 dehydrogenase activity was followed by coupling the generation of NADH to diaphorase catalyzed […] of resazurin to fluorescent resorufin. Briefly, control (DMSO) or compound was incubated with 0.2 nM MTHFD2 for 15 minutes in 10.5 μl assay buffer containing 100 mM Hepes, pH 8.0, 5 mM MgCl2, 5 mM KH2PO4, 0.05% BSA, 0.01% Tween-20 in a 384 well Griener, low volume, black plate. 10 μl of substrate buffer containing 70 μM CH2-THF, 1 mM NAD^+, 100 μM Resazurin and 0.42 mg/ml diaphorase was then added to initiate the reaction and the reaction plate was incubated for 30 minutes. 5 μl of 250 mM EDTA was then added to each well to stop the reaction and MTHFD2 activity was quantified by measuring resorufin fluorescence emission at 598 nm following excitation at 525 nm. Activity in positive control wells containing the complete reaction mixture and DMSO alone was set to 100% while activity in negative control wells with the complete reaction mix without MTHFD2 was set to 0%. 11 concentrations of each compound were tested and the fluorescent data at each concentration was normalized to the positive and negative controls and represented as % inhibition. Median inhibitory concentration (IC50) was calculated by fitting % inhibition at each concentration to a 4 parameter logistic fit equation using Graphpad Prizm.
The compound numbers correspond to the compound numbers in Table A (i.e., the example numbers).
On the technique in general: Resazurin is reduced to fluorescent resorufin, in cell work by metabolically active cells.
The molecule `Cn1c(NC2CCCC(CO)C2)nc2c1c(=O)n(Cc1ccc(Cl)c(Cl)c1)c(=O)n2C` (racemic) [Example 254, (±)-1-(3,4-dichlorobenzyl)-8-(3-(hydroxymethyl)cyclohexylamino)-3,7-dimethyl-1H-purine-2,6(3H,7H)-dione] returned an IC50 of 10 to 1000 nM.

For `Cn1c(Nc2ccnc([C@H]3C[C@@H]3C(=O)O)c2)nc2c1c(=O)n(Cc1ccc(Cl)c(Cl)c1)c(=O)n2C` (racemic) [Example 279, (±)-trans-2-(4-((1-(3,4-dichlorobenzyl)-3,7-dimethyl-2,6-dioxo-2,3,6,7-tetrahydro-1H-purin-8-yl)amino)pyridin-2-yl)cyclopropanecarboxylic acid], the IC50 is 10 to 1000 nM.

For the molecule `Cn1c(Nc2ccnc([C@H]3C[C@@H]3CO)c2)nc2c1c(=O)n(Cc1ccc(Cl)c(Cl)c1)c(=O)n2C` (racemic) [Example 284, (±)-trans-1-(3,4-dichlorobenzyl)-8-((2-(2-(hydroxymethyl)cyclopropyl)pyridin-4-yl)amino)-3,7-dimethyl-1H-purine-2,6(3H,7H)-dione], the IC50 was in the range of 10 to 1000 nM.

Take `Cn1c(Nc2ccnc([C@H]3C[C@@H]3C(N)=O)c2)nc2c1c(=O)n(Cc1ccc(Cl)c(Cl)c1)c(=O)n2C` (racemic) [Example 296, (±)-trans-2-(4-((1-(3,4-Dichlorobenzyl)-3,7-dimethyl-2,6-dioxo-2,3,6,7-tetrahydro-1H-purin-8-yl)amino)pyridin-2-yl)cyclopropanecarboxamide]: the IC50 was in the range of 10 to 1000 nM.

In turn, `Cn1c(Nc2cccc([C@H]3C[C@@H]3C(=O)O)n2)nc2c1c(=O)n(Cc1ccc(Cl)c(Cl)c1)c(=O)n2C` (racemic) [Example 299, (±)-trans-2-(6-((1-(3,4-dichlorobenzyl)-3,7-dimethyl-2,6-dioxo-2,3,6,7-tetrahydro-1H-purin-8-yl)amino)pyridin-2-yl)cyclopropanecarboxylic acid] yielded an IC50 of 10 to 1000 nM.

`Cn1c(Nc2cccc([C@@H]3C[C@H]3C(=O)O)n2)nc2c1c(=O)n(Cc1cc3c(Cl)cccc3[nH]1)c(=O)n2C` (racemic) [Example 315, (±)-trans-2-[6-[[1-[(4-chloro-1H-indol-2-yl)methyl]-3,7-dimethyl-2,6-dioxo-purin-8-yl]amino]-2-pyridyl]cyclopropanecarboxylic acid] showed an IC50 of 10 to 1000 nM.

Molecule `Cn1c(Nc2ccnc([C@H]3C[C@@H]3C(=O)O)c2)nc2c1c(=O)n(Cc1cc3c(Cl)cccc3[nH]1)c(=O)n2C` (racemic) [Example 321, (±)-trans-2-(4-((1-((4-chloro-1H-indol-2-yl)methyl)-3,7-dimethyl-2,6-dioxo-2,3,6,7-tetrahydro-1H-purin-8-yl)amino)pyridin-2-yl)cyclopropanecarboxylic acid] yielded an IC50 of 10 to 1000 nM.

`Cn1c(N[C@H]2CC[C@H](CO)C2)nc2c1c(=O)n(Cc1ccc(Cl)c(Cl)c1)c(=O)n2C` (racemic) [Example 325, (±)-1-(3,4-dichlorobenzyl)-8-((trans)-3-(hydroxymethyl)cyclopentylamino)-3,7-dimethyl-1H-purine-2,6(3H,7H)-dione]: the IC50 was 10 to 1000 nM.

As to `Cn1c(Nc2ccnc([C@H]3C[C@H]3C(=O)O)c2)nc2c1c(=O)n(Cc1ccc(Cl)c(Cl)c1)c(=O)n2C` (racemic) [Example 332, (±)-cis-2-(4-((1-(3,4-dichlorobenzyl)-3,7-dimethyl-2,6-dioxo-2,3,6,7-tetrahydro-1H-purin-8-yl)amino)pyridin-2-yl)cyclopropanecarboxylic acid], the IC50 lay within 10 to 1000 nM.

The molecule `Cn1c(Nc2cccc([C@H]3C[C@@H]3CO)n2)nc2c1c(=O)n(Cc1cc3c(Cl)cccc3[nH]1)c(=O)n2C` (racemic) [Example 335, (±)-trans-1-((4-chloro-1H-indol-2-yl)methyl)-8-((6-(-2-(hydroxymethyl)cyclopropyl)pyridin-2-yl)amino)-3,7-dimethyl-1H-purine-2,6(3H,7H)-dione] showed an IC50 of 1000 to 5000 nM.

In the case of `Cn1c(Nc2cccc([C@H]3C[C@H]3C(=O)O)n2)nc2c1c(=O)n(Cc1ccc(Cl)c(Cl)c1)c(=O)n2C` (racemic) [Example 357, (±)-cis-2-(6-((1-(3,4-dichlorobenzyl)-3,7-dimethyl-2,6-dioxo-2,3,6,7-tetrahydro-1H-purin-8-yl)amino)pyridin-2-yl)cyclopropanecarboxylic acid], the IC50 lay in the range of 10 to 1000 nM.

`Cn1c(Nc2cccc([C@@H]3C[C@H]3C(N)=O)n2)nc2c1c(=O)n(Cc1cc3c(Cl)cccc3[nH]1)c(=O)n2C` (racemic) [Example 364, (±)-trans-2-(6-((1-((4-chloro-1H-indol-2-yl)methyl)-3,7-dimethyl-2,6-dioxo-2,3,6,7-tetrahydro-1H-purin-8-yl)amino)pyridin-2-yl)cyclopropanecarboxamide] came in with an IC50 of 10 to 1000 nM.

`Cn1c(Nc2ccnc([C@H]3C[C@H]3C(=O)O)c2)nc2c1c(=O)n(Cc1cc3c(Cl)cccc3[nH]1)c(=O)n2C` (racemic) [Example 368, (±)-cis-2-(4-((1-((4-chloro-1H-indol-2-yl)methyl)-3,7-dimethyl-2,6-dioxo-2,3,6,7-tetrahydro-1H-purin-8-yl)amino)pyridin-2-yl)cyclopropanecarboxylic acid] displayed an IC50 of 10 to 1000 nM.

Regarding `Cn1c(Nc2cccc([C@H]3C[C@H]3C(=O)O)n2)nc2c1c(=O)n(Cc1cc3c(Cl)cccc3[nH]1)c(=O)n2C` (racemic) [Example 372, (±)-cis-2-(6-((1-((4-chloro-1H-indol-2-yl)methyl)-3,7-dimethyl-2,6-dioxo-2,3,6,7-tetrahydro-1H-purin-8-yl)amino)pyridin-2-yl)cyclopropane-1-carboxylic acid], the IC50 is 10 to 1000 nM.

As for `Cn1c(N[C@H]2CC[C@@H](O)C2)nc2c1c(=O)n(Cc1ccc(Cl)c(Cl)c1)c(=O)n2C` (single isomer, unassigned) [Example 43, 1-(3,4-dichlorobenzyl)-8-((1S,3R)-3-hydroxycyclopentylamino)-3,7-dimethyl-1H-purine-2,6(3H,7H)-dione or 1-(3,4-dichlorobenzyl)-8-((1R,3S)-3-hydroxycyclopentylamino)-3,7-dimethyl-1H-purine-2,6(3H,7H)-dione], the IC50 was 10 to 1000 nM.

As to `Cn1c(N[C@H]2CC[C@H](O)C2)nc2c1c(=O)n(Cc1ccc(Cl)c(Cl)c1)c(=O)n2C` (single isomer, unassigned) [Example 70, 1-(3,4-dichlorobenzyl)-8-((1S,3S)-3-hydroxycyclopentylamino)-3,7-dimethyl-1H-purine-2,6(3H,7H)-dione or 1-(3,4-dichlorobenzyl)-8-((1R,3R)-3-hydroxycyclopentylamino)-3,7-dimethyl-1H-purine-2,6(3H,7H)-dione], the IC50 fell in the range of 10 to 1000 nM.

`Cn1c(N[C@H]2CC[C@@H](O)C2)nc2c1c(=O)n(Cc1ccc(Cl)c(Cl)c1)c(=O)n2C` (single isomer, unassigned) [Example 71, 1-(3,4-dichlorobenzyl)-8-((1S,3R)-3-hydroxycyclopentylamino)-3,7-dimethyl-1H-purine-2,6(3H,7H)-dione or 1-(3,4-dichlorobenzyl)-8-((1R,3S)-3-hydroxycyclopentylamino)-3,7-dimethyl-1H-purine-2,6(3H,7H)-dione] displayed an IC50 of 10 to 1000 nM.

In the case of `Cn1c(N[C@@H]2CC[C@@H](O)C2)nc2c1c(=O)n(Cc1ccc(C(F)(F)F)cc1)c(=O)n2C` (single isomer, unassigned) [Example 76, 8-((1R,3R)-3-hydroxycyclopentylamino)-3,7-dimethyl-1-(4-(trifluoromethyl)benzyl)-1H-purine-2,6(3H,7H)-dione or 8-((1S,3S)-3-hydroxycyclopentylamino)-3,7-dimethyl-1-(4-(trifluoromethyl)benzyl)-1H-purine-2,6(3H,7H)-dione], the IC50 was 1000 to 5000 nM.

As for `Cn1c(N[C@H]2CCC[C@@H](O)C2)nc2c1c(=O)n(Cc1ccc(Cl)c(Cl)c1)c(=O)n2C` (single isomer, unassigned) [Example 78, 1-(3,4-dichlorobenzyl)-8-((1S,3R)-3-hydroxycyclohexylamino)-3,7-dimethyl-1H-purine-2,6(3H,7H)-dione or 1-(3,4-dichlorobenzyl)-8-((1R,3S)-3-hydroxycyclohexylamino)-3,7-dimethyl-1H-purine-2,6(3H,7H)-dione], the IC50 was 10 to 1000 nM.
